What was measured:
Human plasma kallikrein = Human plasma kallikrein (Homo sapiens (Human), UniProt P03952); assay: Kallikrein Assay (fluorogenic substrate Acetyl-K-P-R-AFC); type: biochemical; conditions: Plasma Kallikrein (PKal)
How it was run: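 Ki is derived from IC50 with the Cheng-Prusoff equation, and IC50 from the inflection point of a four-parameter logistic curve. The rate of AFC release is read with 0.5 nM purified enzyme and […] substrate at room temperature or 37 °C.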

human Factor XIa = human Factor XIa (Homo sapiens (Human), UniProt P03951); assay: Factor XIa Assay (fluorogenic substrate GPR-AFC); type: biochemical; conditions: Factor XIa (FXIa)
human Factor XIa, sequence (P03951 388-625 limits assumed): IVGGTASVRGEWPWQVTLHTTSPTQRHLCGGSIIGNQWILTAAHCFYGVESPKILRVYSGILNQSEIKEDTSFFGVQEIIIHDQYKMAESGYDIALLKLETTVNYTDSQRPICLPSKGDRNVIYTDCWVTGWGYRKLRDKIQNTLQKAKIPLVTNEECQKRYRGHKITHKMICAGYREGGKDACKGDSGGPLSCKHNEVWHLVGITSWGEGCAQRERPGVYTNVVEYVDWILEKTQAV
human Factor XIa, sequence (P03951 19-387 partner limits assumed): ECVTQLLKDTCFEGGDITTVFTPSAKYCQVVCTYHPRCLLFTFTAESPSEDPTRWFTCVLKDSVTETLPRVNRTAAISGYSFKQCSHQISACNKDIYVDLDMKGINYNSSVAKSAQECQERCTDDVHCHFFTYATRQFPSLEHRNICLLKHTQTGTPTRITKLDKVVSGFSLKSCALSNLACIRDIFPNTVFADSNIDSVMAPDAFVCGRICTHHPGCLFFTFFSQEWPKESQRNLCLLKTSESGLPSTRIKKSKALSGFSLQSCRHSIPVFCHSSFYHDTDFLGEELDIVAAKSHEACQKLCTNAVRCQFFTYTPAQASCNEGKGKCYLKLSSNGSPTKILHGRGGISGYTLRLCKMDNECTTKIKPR

Human plasma kallikrein, sequence (P03952 391-638): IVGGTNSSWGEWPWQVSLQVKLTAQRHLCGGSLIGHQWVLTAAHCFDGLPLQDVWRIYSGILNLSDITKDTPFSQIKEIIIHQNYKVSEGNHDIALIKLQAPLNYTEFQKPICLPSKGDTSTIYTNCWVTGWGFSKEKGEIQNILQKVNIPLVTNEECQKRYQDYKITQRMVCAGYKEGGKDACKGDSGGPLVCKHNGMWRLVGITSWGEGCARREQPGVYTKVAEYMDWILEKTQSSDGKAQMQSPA
Human plasma kallikrein, sequence (P03952 20-390 partner): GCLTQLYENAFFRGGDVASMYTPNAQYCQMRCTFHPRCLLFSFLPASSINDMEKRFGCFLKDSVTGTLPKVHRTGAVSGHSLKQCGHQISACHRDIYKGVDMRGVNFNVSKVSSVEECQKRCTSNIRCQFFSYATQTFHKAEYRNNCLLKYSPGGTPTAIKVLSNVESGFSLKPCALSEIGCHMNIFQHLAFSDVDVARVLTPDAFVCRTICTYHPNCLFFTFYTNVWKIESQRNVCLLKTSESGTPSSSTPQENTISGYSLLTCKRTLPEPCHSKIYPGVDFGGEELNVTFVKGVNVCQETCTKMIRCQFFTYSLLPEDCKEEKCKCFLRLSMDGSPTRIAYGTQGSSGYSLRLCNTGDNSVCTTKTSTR

Compound: Cc1ncc(-c2c(OC(F)F)ccc(Cl)c2F)nc1C(=O)Nc1cnn(C(C)c2cnc(N3C[C@H]4C[C@H]4C3=O)c(F)c2C)c1 (single isomer, unassigned) [Example 129, 6-(3-Chloro-6-(difluoromethoxy)-2-fluorophenyl)-N-(1-((S or R)-1-(5-fluoro-4-methyl-6-((1R,5S)-2-oxo-3-azabicyclo[3.1.0]hexan-3-yl)pyridin-3-yl)ethyl)-IH-pyrazol-4-yl)-3-methylpyrazine-2-carboxamide]
- IC50 (Human plasma kallikrein): 4.3 nM
- IC50 (human Factor XIa): 3210 nM

Compound: Cc1ncc(-c2c(OC(F)F)ccc(Cl)c2F)nc1C(=O)Nc1cnn(C(C)c2cnc(N3C[C@H]4C[C@H]4C3=O)c(F)c2C)c1 (single isomer, unassigned) [Example 130, 6-(3-Chloro-6-(difluoromethoxy)-2-fluorophenyl)-N-(1-((R or S)-1-(5-fluoro-4-methyl-6-((1R,5S)-2-oxo-3-azabicyclo[3.1.0]hexan-3-yl)pyridin-3-yl)ethyl)-1H-pyrazol-4-yl)-3-methylpyrazine-2-carboxamide]
- IC50 (Human plasma kallikrein): 0.8 nM
- IC50 (human Factor XIa): 549 nM

Compound: Cc1cc(C(C)n2cc(NC(=O)c3nc(-c4c(OC(F)F)ccc(Cl)c4F)cnc3C)cn2)cnc1N1C[C@H]2C[C@H]2C1=O (single isomer, unassigned) [Example 131, 6-(3-Chloro-6-(difluoromethoxy)-2-fluorophenyl)-3-methyl-N-(1-((S or R)-1-(5-methyl-6-((1R,5S)-2-oxo-3-azabicyclo[3.1.0]hexan-3-yl)pyridin-3-yl)ethyl)-1H-pyrazol-4-yl)pyrazine-2-carboxamide]
- IC50 (Human plasma kallikrein): 0.5 nM
- IC50 (human Factor XIa): 545 nM

Compound: Cc1cc(C(C)n2cc(NC(=O)c3nc(-c4c(OC(F)F)ccc(Cl)c4F)cnc3C)cn2)cnc1N1C[C@H]2C[C@H]2C1=O (single isomer, unassigned) [Example 132, 6-(3-Chloro-6-(difluoromethoxy)-2-fluorophenyl)-3-methyl-N-(1-((R or S)-1-(5-methyl-6-((1R,5S)-2-oxo-3-azabicyclo[3.1.0]hexan-3-yl)pyridin-3-yl)ethyl)-1H-pyrazol-4-yl)pyrazine-2-carboxamide]
- IC50 (Human plasma kallikrein): 0.6 nM
- IC50 (human Factor XIa): 139 nM

Compound: Cc1c(C(C)n2cc(NC(=O)c3cncc(-c4c(OC(F)F)ccc(Cl)c4F)n3)cn2)cnc(N2C[C@H]3C[C@H]3C2=O)c1F (single isomer, unassigned) [Example 133, 6-(3-Chloro-6-(difluoromethoxy)-2-fluorophenyl)-N-(1-((S or R)-1-(5-fluoro-4-methyl-6-((1R,5S)-2-oxo-3-azabicyclo[3.1.0]hexan-3-yl)pyridin-3-yl)ethyl)-1i-pyrazol-4-yl)pyrazine-2-carboxamide]
- IC50 (Human plasma kallikrein): 0.6 nM
- IC50 (human Factor XIa): 510 nM

Compound: Cc1c(C(C)n2cc(NC(=O)c3cncc(-c4c(OC(F)F)ccc(Cl)c4F)n3)cn2)cnc(N2C[C@H]3C[C@H]3C2=O)c1F (single isomer, unassigned) [Example 134, 6-(3-Chloro-6-(difluoromethoxy)-2-fluorophenyl)-N-(1-((R or S)-1-(5-fluoro-4-methyl-6-((1R,5S)-2-oxo-3-azabicyclo[3.1.0]hexan-3-yl)pyridin-3-yl)ethyl)-1H-pyrazol-4-yl)pyrazine-2-carboxamide]
- IC50 (Human plasma kallikrein): 13.9 nM
- IC50 (human Factor XIa): 5570 nM

Compound: Cc1ncc(-c2c(C#N)ccc(Cl)c2F)nc1C(=O)Nc1cnn(C(C)c2cnc(N3C[C@H]4C[C@H]4C3=O)c(F)c2C)c1 (single isomer, unassigned) [Example 135, 6-(3-Chloro-6-cyano-2-fluorophenyl)-N-(1-((S or R)-1-(5-fluoro-4-methyl-6-((1R,5S)-2-oxo-3-azabicyclo[3.1.0]hexan-3-yl)pyridin-3-yl)ethyl)-1H-pyrazol-4-yl)-3-methylpyrazine-2-carboxamide]
- IC50 (Human plasma kallikrein): 5.4 nM
- IC50 (human Factor XIa): 4880 nM

Compound: Cc1ncc(-c2c(C#N)ccc(Cl)c2F)nc1C(=O)Nc1cnn(C(C)c2cnc(N3C[C@H]4C[C@H]4C3=O)c(F)c2C)c1 (single isomer, unassigned) [Example 136, 6-(3-Chloro-6-cyano-2-fluorophenyl)-N-(1-((R or S)-1-(5-fluoro-4-methyl-6-((1R,5S)-2-oxo-3-azabicyclo[3.1.0]hexan-3-yl)pyridin-3-yl)ethyl)-1H-pyrazol-4-yl)-3-methylpyrazine-2-carboxamide]
- IC50 (Human plasma kallikrein): 0.2 nM
- IC50 (human Factor XIa): 591 nM

Compound: Cc1ncc(-c2c(C(F)F)ccc(Cl)c2F)nc1C(=O)Nc1cnn(C(C)c2ncc(N3C[C@H]4C[C@H]4C3=O)cc2F)c1 (single isomer, unassigned) [Example 137, 6-(3-Chloro-6-(difluoromethyl)-2-fluorophenyl)-N-(1-((S or R)-1-(3-fluoro-5-((1R,5S)-2-oxo-3-azabicyclo[3.1.0]hexan-3-yl)pyridin-2-yl)ethyl)-1H-pyrazol-4-yl)-3-methylpyrazine-2-carboxamide]
- IC50 (Human plasma kallikrein): 7.7 nM
- IC50 (human Factor XIa): > 10000 nM

Compound: Cc1cc(C(C)n2cc(NC(=O)c3nc(-c4c(C#N)ccc(Cl)c4F)cnc3C)cn2)cnc1N1C[C@H]2C[C@H]2C1=O (single isomer, unassigned) [Example 139, 6-(3-Chloro-6-cyano-2-fluorophenyl)-3-methyl-N-(1-((S or R)-1-(5-methyl-6-((1R,5S)-2-oxo-3-azabicyclo[3.1.0]hexan-3-yl)pyridin-3-yl)ethyl)-1H-pyrazol-4-yl)pyrazine-2-carboxamide]
- IC50 (Human plasma kallikrein): 0.9 nM
- IC50 (human Factor XIa): 282 nM

Compound: Cc1cc(C(C)n2cc(NC(=O)c3nc(-c4c(C#N)ccc(Cl)c4F)cnc3C)cn2)cnc1N1C[C@H]2C[C@H]2C1=O (single isomer, unassigned) [Example 140, 6-(3-Chloro-6-cyano-2-fluorophenyl)-3-methyl-N-(1-((R or S)-1-(5-methyl-6-((IR,5S)-2-oxo-3-azabicyclo[3.1.0]hexan-3-yl)pyridin-3-yl)ethyl)-1H-pyrazol-4-yl)pyrazine-2-carboxamide]
- IC50 (Human plasma kallikrein): 0.6 nM
- IC50 (human Factor XIa): 972 nM

Compound: CC(c1cnc(N2C[C@H]3C[C@H]3C2=O)c2c1CCC2)n1cc(NC(=O)c2cncc(-c3c(C(F)F)ccc(Cl)c3F)n2)cn1 (single isomer, unassigned) [Example 141, 6-(3-Chloro-6-(difluoromethyl)-2-fluorophenyl)-N-(1-((S or R)-1-(1-((1R,5S)-2-oxo-3-azabicyclo[3.1.0]hexan-3-yl)-6,7-dihydro-5H-cyclopenta[c]pyridin-4-yl)ethyl)-1H-pyrazol-4-yl)pyrazine-2-carboxamide]
- IC50 (Human plasma kallikrein): 1.1 nM
- IC50 (human Factor XIa): 906 nM

Compound: CC(c1cnc(N2C[C@H]3C[C@H]3C2=O)c2c1CCC2)n1cc(NC(=O)c2cncc(-c3c(C(F)F)ccc(Cl)c3F)n2)cn1 (single isomer, unassigned) [Example 142, 6-(3-Chloro-6-(difluoromethyl)-2-fluorophenyl)-N-(1-((R or S)-1-(1-((1R,5S)-2-oxo-3-azabicyclo[3.1.0]hexan-3-yl)-6,7-dihydro-5H-cyclopenta[c]pyridin-4-yl)ethyl)-1H-pyrazol-4-yl)pyrazine-2-carboxamide]
- IC50 (Human plasma kallikrein): 0.6 nM
- IC50 (human Factor XIa): 373 nM

Compound: CC(c1cnc(N2C[C@H]3C[C@H]3C2=O)c(F)c1)n1cc(NC(=O)c2nc(-c3c(C(F)F)ccc(Cl)c3F)cnc2COC(C)(C)C)cn1 (single isomer, unassigned) [Example 143, 3-(tert-Butoxymethyl)-6-(3-chloro-6-(difluoromethyl)-2-fluorophenyl)-N-(1-((S or R)-1-(5-fluoro-6-((1R,5S)-2-oxo-3-azabicyclo[3.1.0]hexan-3-yl)pyridin-3-yl)ethyl)-1H-pyrazol-4-yl)pyrazine-2-carboxamide]
- IC50 (Human plasma kallikrein): 4.9 nM
- IC50 (human Factor XIa): 4310 nM

Compound: CC(c1cnc(N2C[C@H]3C[C@H]3C2=O)c(F)c1)n1cc(NC(=O)c2nc(-c3c(C(F)F)ccc(Cl)c3F)cnc2COC(C)(C)C)cn1 (single isomer, unassigned) [Example 144, 3-(tert-Butoxymethyl)-6-(3-chloro-6-(difluoromethyl)-2-fluorophenyl)-N-(1-((R or S)-1-(5-fluoro-6-((1R,5S)-2-oxo-3-azabicyclo[3.1.0]hexan-3-yl)pyridin-3-yl)ethyl)-1H-pyrazol-4-yl)pyrazine-2-carboxamide]
- IC50 (Human plasma kallikrein): 1.6 nM
- IC50 (human Factor XIa): > 10000 nM

Compound: CC(c1ncc(N2C[C@H]3C[C@H]3C2=O)cc1F)n1cc(NC(=O)c2cncc(-c3c(C(F)F)ccc(Cl)c3F)n2)cn1 (single isomer, unassigned) [Example 146, 6-(3-Chloro-6-(difluoromethyl)-2-fluorophenyl)-N-(1-((R or S)-1-(3-fluoro-5-((1R,5S)-2-oxo-3-azabicyclo[3.1.0]hexan-3-yl)pyridin-2-yl)ethyl)-1H-pyrazol-4-yl)pyrazine-2-carboxamide]
- IC50 (Human plasma kallikrein): 9.8 nM
- IC50 (human Factor XIa): > 10000 nM

Compound: Cc1ncc(-c2c(C(F)F)ccc(Cl)c2F)nc1C(=O)Nc1cnn(C(C)c2ncc(N3C[C@H]4C[C@H]4C3=O)cc2Cl)c1 (single isomer, unassigned) [Example 147, N-(1-((R or S)-1-(3-Chloro-5-((1R,5S)-2-oxo-3-azabicyclo[3.1.0]hexan-3-yl)pyridin-2-yl)ethyl)-1H-pyrazol-4-yl)-6-(3-chloro-6-(difluoromethyl)-2-fluorophenyl)-3-methylpyrazine-2-carboxamide]
- IC50 (Human plasma kallikrein): 2.9 nM
- IC50 (human Factor XIa): 7300 nM

Compound: Cc1c(C(C)n2cc(NC(=O)c3cncc(-c4c(C(F)F)ccc(Cl)c4F)n3)cn2)cnc(N2C[C@H]3C[C@H]3C2=O)c1C (single isomer, unassigned) [Example 152, 6-(3-Chloro-6-(difluoromethyl)-2-fluorophenyl)-N-(1-((R or S)-1-(4,5-dimethyl-6-((1R,5S)-2-oxo-3-azabicyclo[3.1.0]hexan-3-yl)pyridin-3-yl)ethyl)-1H-pyrazol-4-yl)pyrazine-2-carboxamide]
- IC50 (Human plasma kallikrein): 0.3 nM
- IC50 (human Factor XIa): 197 nM

Reference: US20230286958A1, “PLASMA KALLIKREIN INHIBITORS” (Merck Sharp & Dohme LLC, priority 2020, published 2023)
